In PMC10855902 (International Journal of Molecular Sciences, 2024):
Like-named read-outs stand apart in the source and are kept apart here. Ends that are not written are not given here. Peptide text beside a SMILES is read from it.

Experiments:
[1] = tested on: Primary Dermal Fibroblasts; assay: Live/dead test (proliferation and cytotoxicity); type: cell-based; details: 100 ng/mL; for percentage of live cells (in words) / live cells: live/dead assay
Method: In the next stage of our research, the scope of biological tests was expanded to assess the safety of the found EGF fragments. Fragments 10–22, 13–19, 22–28, 26–34, 10–15, and 10–15a were selected for further study in a live/dead assay (Figure 7, Figure 8 and Figure 9).
Primary Dermal Fibroblast (ATCC, Manassas, USA) was grown in Fibroblast Basal Media supplemented with Fibroblast Growth Kit components (ATCC, Manassas, VA, USA). The cells were cultured under standard conditions (37 °C, humidified atmosphere of 5% CO2 in air). The medium was replaced every 2–3 days (75% confluence). Cells between the third and fifth passages were used in the experiment.
To evaluate proliferation and cytotoxicity, a “live/dead” test (Viability/Cytotoxicity Kit, Molecular Probes) was used. Cells were seeded at 6 × 10^4 cells/mL/well/sample in 2 mL of Fibroblast Basal Media supplemented with Fibroblast Growth Kit components (ATCC, Manassas, VA, USA). After 24 h, the medium was completely replaced. Cells in the positive control and negative control were cultured in medium containing FGF. In the remaining samples, media without FGF and with the addition of heat-inactivated serum were used. […] During the experiment, half of the medium was changed every 2 days. […] After that time, a mixture of two fluorescent dyes was used: Calcein-AM for the staining of living cells and ethidium bromide for the labeling of dead cells.
The samples were examined using an Olympus GX 71 fluorescence microscope equipped with a digital camera (DP70) (Olympus, Evident, Tokyo, Japan). The results were submitted to one-way ANOVA analysis.

[2] = target: Recombinant human EGFR protein (Active) (ab155639) (Homo sapiens, UniProt P00533); assay: Microscale thermophoresis (MST) binding to EGFR
Method: It is known from the literature data that the dissociation constant of this binding interaction varies from 0.2 to 8 nM [102]. […] It is recommended that the concentration of the ligand should be at least 20× higher than the expected dissociation constant. In the experiments, the final labeled EGFR concentration was 25 nM.
MST analysis was performed using a Monolith NT.115 device, excitation color—Nano-RED, excitation power—100%, medium MST power.
Recombinant human EGFR protein (Active) (ab155639) was reconstituted with 500 μL of 0.45 μm filtered distilled water. Then, 100 nM solution of EGFR was prepared by mixing 3.6 μL of protein with 96.4 μL PBS-T (PBS with 0.05% Tween20). RED-tris-NTA 2nd Generation (5 μM) was obtained by dissolving […] of dye in 50 μL PBS-T. A solution of dye in PBS-T (50 nM) was prepared by mixing 1 μL of dye with 99 μL PBS-T. A solution of the protein (95 μL) was mixed with the solution of dye (95 μL) and incubated at room temperature for 30 min. The sample was then centrifuged for 10 min at 4 °C. The final labeled protein concentration in the assay was 25 nM.
Then, 20 μL of the ligand was transferred to PCR tube 1. Subsequently, 10 μL of the solution was transferred to PCR tube 2 and mixed by pipetting; 10 μL of the solution from PCR tube 2 was transferred to PCR tube 3 and mixed by pipetting; this procedure was repeated for PCR tubes 4–16. From PCR tube 16, 10 μL of the solution was discarded. Finally, 10 μL of labeled EGFR was added to each PCR tube and mixed by pipetting. The samples were incubated for 30 min at room temperature prior to MST assays. Analyses were performed using NanoTemper Technologies (München, Germany).

[3] = tested on: anti-EGF rabbit polyclonal antibodies (Abcam 9695); assay: Dot blot of cellulose-immobilized EGF decapeptides with anti-EGF polyclonal antibodies; type: binding;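 on Intensity (Staining Value): higher gray value means stronger antibody binding with above 120 very strong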
Method: Dot blot reactions were performed using primary anti-EGF rabbit polyclonal antibodies (Abcam 9695) (Cambridge, UK) and secondary goat anti-rabbit antibodies conjugated with HRP (Abcam 205718). The procedure for using the dot blot method to analyze peptides immobilized on a cellulose matrix through a triazine linker was optimized in a previous study by the authors and ensures the elimination of non-specific impacts.
The solution was then removed, and the membranes were treated overnight at room temperature with blocking buffer (3% BSA in PBS, 40 mL, pH 7.4). The cellulose sheets were then washed with PBS buffer (40 mL, 5 min, pH 7.4). […] The membranes were then washed with Tween-80 solution in PBS (0.4%, 40 mL, 2 × 5 min) and PBS (40 mL, 5 min). Goat Anti-Rabbit IgG antibodies were conjugated with HRP (Abcam 205718, 20 μL) diluted 1:1000 in 1% BSA in PBS (20 mL, pH 7.4) and then incubated with cellulose sheets for 30 min at room temperature. The membranes were then washed with Tween-80 solution in PBS (0.4%, 40 mL, 2 × 5 min) and PBS (40 mL, 5 min). Visualization of the reactions was performed using 4-chloro-1-naphtol (Sigma–Aldrich). The cellulose sheets were placed into 0.15 mg/mL solution of 4-chloro-1-naphtol in MeOH:PBS (1:5, 15 mL) with the addition of 7.5 μL of H2O2; reaction time was 30 min. The membranes were washed with distilled water, air-dried, and scanned. In places where immunological complexes developed, blue precipitate was observed. The applied dot blot test procedure ensures the elimination of non-specific interactions. Additionally, using the same SPOT synthesis procedure, a library of type IV collagen fragments was obtained. […] The gray levels of the immunological reactions were determined using ImageJ Version 1.53n7 (https://imagej.nih.gov/ij/index.html, accessed on 17 October 2021) computer imaging software.

[4] = target: T1, Recombinant human EGFR protein (Active) (ab155639) (human, UniProt P00533 25-645, labelled with RED-tris-NTA 2nd Generation dye); assay: MST; RED-tris-NTA-labelled EGFR 25 nM, ligand in a 16-step 1:1 dilution series in PBS-T, 30 min at room temperature; assay concentration of the ligand 141 μM; details: both partners purified
T1 construct: epidermal growth factor receptor (EGFR, ErbB-1), human, recombinant; also called EGF receptor; ErbB-1; source: bought: Abcam (ab155639), recombinant

[5] = target: T1, Recombinant human EGFR protein (Active) …; assay: MST; RED-tris-NTA-labelled EGFR 25 nM, ligand in a 16-step 1:1 dilution series in PBS-T, 30 min at room temperature; assay concentration of the ligand 1 mM; details: both partners purified
[6] = target: T1, Recombinant human EGFR protein (Active) …; assay: MST; RED-tris-NTA-labelled EGFR 25 nM, ligand in a 16-step 1:1 dilution series in PBS-T, 30 min at room temperature; assay concentration of the ligand 705 μM; details: both partners purified
[7] = target: T1, Recombinant human EGFR protein (Active) …; assay: MST; RED-tris-NTA-labelled EGFR 25 nM, ligand in a 16-step 1:1 dilution series in PBS-T, 30 min at room temperature; assay concentration of the ligand 50 μM; details: both partners purified
[8] = target: T1, Recombinant human EGFR protein (Active) …; assay: MST; RED-tris-NTA-labelled EGFR 25 nM, ligand in a 16-step 1:1 dilution series in PBS-T, 30 min at room temperature; assay concentration of the ligand 350 μM; details: both partners purified
[9] = target: T1, Recombinant human EGFR protein (Active) …; assay: MST; RED-tris-NTA-labelled EGFR 25 nM, ligand in a 16-step 1:1 dilution series in PBS-T, 30 min at room temperature; assay concentration of the ligand 500 μM; details: both partners purified
[10] = target: T1, Recombinant human EGFR protein (Active) …; assay: MST; RED-tris-NTA-labelled EGFR 25 nM, ligand in a 16-step 1:1 dilution series in PBS-T, 30 min at room temperature; assay concentration of the ligand 10 mM; details: both partners purified
[11] = target: T1, Recombinant human EGFR protein (Active) …; assay: MST; RED-tris-NTA-labelled EGFR 25 nM, ligand in a 16-step 1:1 dilution series in PBS-T, 30 min at room temperature; assay concentration of the ligand 2.5 mM; details: both partners purified
[12] = target: T1, Recombinant human EGFR protein (Active) …; assay: MST; RED-tris-NTA-labelled EGFR 25 nM, ligand in a 16-step 1:1 dilution series in PBS-T, 30 min at room temperature; assay concentration of the ligand 10 μM; details: both partners purified
[13] = target: T1, Recombinant human EGFR protein (Active) …; assay: MST; RED-tris-NTA-labelled EGFR 25 nM, ligand in a dilution series in PBS-T; assay concentration of the ligand not stated for the values printed in running text; details: both partners purified
[14] = target: T1, Recombinant human EGFR protein (Active) …; assay: MST; RED-tris-NTA-labelled EGFR 25 nM, ligand in a 16-step 1:1 dilution series in PBS-T, 30 min at room temperature; assay concentration of the ligand 5 mM; details: both partners purified

CSCC[C@H](NC(=O)[C@H](CS)NC(=O)[C@@H](NC(=O)CNC(=O)[C@H](CC(=O)O)NC(=O)[C@H](Cc1c[nH]cn1)NC(=O)[C@H](CC(C)C)NC(=O)[C@H](CS)NC(=O)[C@H](Cc1ccc(O)cc1)NC(=O)CNC(=O)[C@H](CC(=O)O)NC(=O)[C@@H](N)Cc1c[nH]cn1)C(C)C)C(=O)N[C@@H](Cc1ccc(O)cc1)C(=O)O [10–22] (H-HDGYCLHDGVCMY-OH; C-terminus assumed)
percentage of live cells (in words) ([1]; after 1 day): slightly less survivability | live cells ([1]; after 7 days): 99.25% | live cells ([1]; after one day): 97.13% | dissociation constants (range over the assay concentrations) ([2]; MST, range over the tested fragment concentrations, labeled EGFR 25 nM): 0.07 to 416 µM

CC[C@H](C)[C@H](N)C(=O)N[C@@H](CCC(=O)O)C(=O)N[C@@H](C)C(=O)N[C@@H](CC(C)C)C(=O)O [23–26] (H-IEAL-OH)
Kd ([2]; MST, assay concentration 10 mM, labeled EGFR 25 nM, read-out: Kd): 5090 µM

CC(C)C[C@H](N)C(=O)N[C@@H](CC(=O)O)C(=O)N[C@@H](CCCCN)C(=O)N[C@@H](Cc1ccc(O)cc1)C(=O)N[C@@H](C)C(=O)N[C@@H](CS)C(=O)N[C@@H](CC(N)=O)C(=O)N[C@@H](CS)C(=O)N[C@H](C(=O)O)C(C)C [26–34] (H-LDKYACNCV-OH)
number of cells (fibroblast proliferation, in words) ([1]; after 1 day of incubation): more cells than in the medium with EGF | percentage of live cells (in words) ([1]; after 1 day): one of the highest percentages of live cells | percentage of live cells (in words) ([1]; after 7 days): one of the highest percentages of live cells

EGF: native EGF (ab9697), recombinant human EGF protein; 53-amino acid polypeptide
number of cells (fibroblast proliferation, in words) ([1]; after 7 days of incubation): induced cell growth

H-YCLHDGV-OH [13–19]
percentage of live cells (in words) ([1]; after 1 day): slightly less survivability | live cells ([1]; after 7 days): 99.30% | live cells ([1]; after one day): 97.84%

H-^44YRDLKWWELR^53-matrix [C4]
interaction with polyclonal anti-EGF antibodies (in words) ([3]; peptide on cellulose matrix): show interactions with polyclonal anti-EGF antibodies | Intensity (ability to interact with polyclonal antibodies) ([3]; peptide on cellulose matrix, antibody 1:1000, 1 h room temperature): + (strong (+), for which the staining intensity value was in the range of 120–90) | Intensity (Staining Value) ([3]; scanned spot, 256 gray scale (ImageJ)): 104.2

HDGYCL [10–15]
live cells ([1]; after 7 days): 99.52% | live cells ([1]; after one day): 98.73%

IGERCQ [38–43]
Kd ([2]; MST, range over the tested fragment concentrations, labeled EGFR 25 nM, read-out: Kd (range over the assay concentrations)): 0.108 to 0.709 µM

QYRDL [43–47]
percentage of live cells (in words) ([1]; after 7 days): highest live percentage of cells for all tested peptides | Kd [2]: 4.93 to 125 µM

VVGYIGERCQYRDL [34–47]
Kd ([2]; MST, range over the tested fragment concentrations, labeled EGFR 25 nM, read-out: dissociation constants (range over the assay concentrations)): 0.5 to 5.92 µM

YIEALDK [22–28]
percentage of live cells (in words) ([1]; after 1 day): slightly less survivability

B1: EGF fragment 34–47 (VVGYIGERCQYRDL) (peptide)
peptide: VVGYIGERCQYRDL
notes: EGF, human, residues 34-47; numbers count on: the mature protein; source: synthetic peptide (SPPS, Fmoc; crude, without preparative HPLC)
Kd [4]: 4.62 µM | Kd [5]: 0.53 µM | Kd [6]: 2.17 µM | Kd [7]: 5.92 µM | Kd [8]: 1.21 µM

B2: EGF fragment 43–47 (QYRDL) (peptide)
peptide: QYRDL
notes: EGF, human, residues 43-47; numbers count on: the mature protein; source: synthetic peptide (SPPS, Fmoc; crude, without preparative HPLC)
Kd [9]: 4.93 µM | Kd [10]: 125 µM

B3: EGF fragment 38–43 (IGERCQ) (peptide)
peptide: IGERCQ
notes: EGF, human, residues 38-43; numbers count on: the mature protein; source: synthetic peptide (SPPS, Fmoc; crude, without preparative HPLC)
Kd [11]: 0.108 µM | Kd [12]: 0.709 µM | Kd [13]: 0.1 to 1.8 µM | Kd [14]: 0.157 µM | Kd [9]: 0.154 µM
